Data set [1] has as its system Monilinia fructicola strain 1 (S1). The data set can be described thus: radial mycelial growth test, M. fructicola strain 1 (S1). The settings on record: PDA, 120 h at 24 °C in the dark; for EC50: Monilinia fructicola, 120 h, n = 6, read-out: EC50 ± SD, mycelial growth inhibition; for EC50 ± SD, mycelial growth inhibition: n = 6. It counts as cell-based. The text has this:
(§1) Both strains (S1 and S2) of M. fructicola were kindly provided by the phytopathology laboratory of the Servicio Agrícola y Ganadero de Chile (SAG), Santiago, Chile. The isolate S1 was recovered from infected peach from commercial orchards in the O’Higgins region, Chile, and the isolate S2 was recovered from infected nectarines from commercial orchards in the province of Maipo, Metropolitan Region, Chile and identified to species level with a PCR assay developed by the molecular biology laboratory belonging to SAG; these were maintained on potato dextrose agar (PDA) and incubated for 120 h at 24 °C.
(§2) The antifungal activity of all dihidrocarvone-hybrid derivatives (2–9) against both strains of M. fructicola was determined by the radial test previously reported. The test compounds were dissolved in ethanol (5% v/v) and added to the potato dextrose agar medium (PDA) medium in the petri dishes to obtain a final concentration of 10, 25, 50, 150, and 250 µg/mL. The mycelial growth diameters were measured after 120 h of incubation at 24 °C in the dark, and the inhibition percentages were calculated with respect to the negative ethanol control. The commercial fungicides Mystic® 520 SC (Pyrimethanil 400 g/L, Trifloxystrobin 120 g/L) (Lot: PAIS004727; Bayer, Santiago, Chile) and BC-1000® (grapefruit seed and pulp extract (Citrus x paridisi), 50% w/v (500 g/L)) were used as positive controls and were measured under the same conditions as the compounds.
(§3) The results were expressed as the effective concentration (EC50) that reduced mycelial growth by 50%. This value was determined by regressing the values of the percentage inhibition of radial growth against the compound concentration values. The fit analysis was performed using the Origin Pro® V. 8.0 software (OriginLab Corporation, Northampton, Massachusetts, EE.UU). These experiments were performed in triplicate and each assay was performed twice (n = 6). Significant differences were determined using a one-way analysis of variance, followed by a pairwise comparison of means (LSD test; p < 0.05) (Microsoft Office Excel® 2016).

The next data set concerns Artemia salina L. larvae. The data set can be described thus: brine shrimp lethality test (BSLT). Format: in vivo. The following applies: for LD50 (BSLT): Artemia salina larvae, 24 h, probit analysis. On the procedure:
The assay was carried out according to the principle and protocol previously described. Briefly, Artemia salina L. eggs were inserted into a box containing seawater; the box was placed under a UV lamp; after 48 h, the eggs hatched into larvae and were ready for the test. All of the compounds were dissolved in methanol at final concentrations of 1000 to 10 µg/mL. After 24 h, the live and dead shrimp were counted. The experiment was conducted in triplicate. The median lethal concentrations (LD50) with 95% confidence intervals were determined using the Probit analysis method. For LC50 values, probit analysis was used with Minitab V. 15 software (Minitab® Statistical Software, State College, PA, USA).

Data set [2] relates to Monilinia fructicola strain 2 (S2). The data set can be described thus: radial mycelial growth test, M. fructicola strain 2 (S2). It counts as cell-based. The following applies: PDA, 120 h at 24 °C in the dark, n = 6, read-out: EC50 ± SD, mycelial growth inhibition.
Description: as §1, §2, §3

In data set [3] the test system is both strains of M. fructicola. The data set can be described thus: radial mycelial growth test, inhibition percentages over both strains. It counts as cell-based. The following applies: Monilinia fructicola, range over strains 1 and 2, read-out: inhibition percentage of mycelial growth.
Description: as §1
as §2, with “The test compounds were dissolved in ethanol (5% v/v) and added to the potato dextrose agar medium (PDA) medium in the petri dishes to obtain a final concentration of 10, 25, 50, 150, and 250 µg/mL.” left out, “compounds. […]” for “compounds.”

In brackets after ≈: the same amount, converted by molar mass.

The term EC50 denotes the concentration that produces a half-maximal response. What is called inhibition is the drop in the measured response relative to a control, in per cent.

Turning to `C=C(C)[C@@H]1CCC(C)C(=O)C1=Cc1ccc2c(c1)OCO2` (stereo partly drawn) [Compound 7, (3S)-2-(1,3-benzodioxol-5-ylmethylene)-3-isopropenyl-6-methylcyclohexanone], the EC50 in data set [1] was 146 to 148 µg/mL (≈ 513 to 521 µM); in data set [2] it was 18.1 µg/mL (≈ 63.7 µM). Further, the “EC50 ± SD, mycelial growth inhibition” value in data set [1] is 148.1 ± 1.4 µg/mL (≈ 521 µM). In addition, in the data set with Artemia salina L. larvae, the “LD50 (BSLT)” value was determined as 910 µg/mL.
Take `C=C(C)[C@@H]1CCC(C)C(=O)C1=Cc1cccc(O)c1` (stereo partly drawn) [Compound 8, (3S)-2-(3-hydroxybenzylidene)-3-isopropenyl-6-methylcyclohexanone]: the inhibition at 150 µg/mL in data set [3] (150 µg/mL) was in the range of 47 to 88%. In data set [3] (250 µg/mL), the inhibition at 250 µg/mL was 62 to 97%. The half-maximal effective concentration (EC50) in data set [1] is 146 to 148 µg/mL (≈ 569 to 578 µM); in data set [2] it was 15.7 ± 1.3 µg/mL (≈ 61.2 µM). In addition, the “EC50 ± SD, mycelial growth inhibition” value in data set [1] stood at 145.9 ± 1.7 µg/mL (≈ 569 µM). Further, in the data set on Artemia salina L. larvae, the “LD50 (BSLT)” value came to 890 µg/mL.
`C=C(C)[C@@H]1CCC(C)C(=O)C1=Cc1cccc(OC)c1` (stereo partly drawn) [Compound 4, (3S)-3-isopropenyl-2-(3-methoxybenzylidene)-6-methylcyclohexanone]: the EC50 turned out to be 273.2 ± 0.9 µg/mL (≈ 1010 µM) in data set [1] and 39.6 ± 1.1 µg/mL (≈ 146 µM) in data set [2]. In addition, the “LD50 (BSLT)” value with Artemia salina L. larvae is given as more than 1000 µg/mL.
In the case of `C=C(C)[C@@H]1CCC(C)C(=O)C1` (some centres unmarked) [Compound 1, Dihydrocarvone], the EC50 in data set [1] and in data set [2] was more than 250 µg/mL throughout. The “LD50 (BSLT)” value in the data set with Artemia salina L. larvae is on record as 550 µg/mL.
Turning to `C=C(C)[C@@H]1CCC(C)C(=O)C1=Cc1ccc(O)cc1` (stereo partly drawn) [Compound 9, (3S)-2-(4-hydroxybenzylidene)-3-isopropenyl-6-methylcyclohexanone], the EC50 in data set [1] and in data set [2] was more than 250 µg/mL each time. The “LD50 (BSLT)” value in the data set with Artemia salina L. larvae is on record as 847 µg/mL. The “times less toxic than the commercial control of M. fructicola (BSLT)” value in the data set with Artemia salina L. larvae (compared with the commercial control (Mystic 520 SC)) came to 80 times.
As to `C=C(C)[C@@H]1CCC(C)C(=O)C1=Cc1ccc(OC)cc1` (stereo partly drawn) [Compound 5, (3S)-3-isopropenyl-2-(4-methoxybenzylidene)-6-methylcyclohexanone], the EC50 in data set [1] was more than 250 µg/mL; in data set [2], 23.1 ± 1.2 µg/mL (≈ 85.4 µM). Further, the “LD50 (BSLT)” value with Artemia salina L. larvae is reported as more than 1000 µg/mL.
On the same counts, the results for `C=C(C)[C@@H]1CCC(C)C(=O)C1=Cc1ccccc1OC` (stereo partly drawn) [Compound 3, (3S)-3-isopropenyl-2-(2-methoxybenzylidene)-6-methylcyclohexanone] are more than 250 µg/mL, 58 ± 0.7 µg/mL (≈ 215 µM) and more than 1000 µg/mL.
On to `C=C(C)[C@@H]1CCC(C)C(=O)C1=Cc1ccccc1` (stereo partly drawn) [Compound 2, (3S)-2-benzylidene-3-isopropenyl-6-methylcyclohexanone], for which the EC50 in data set [1] and in data set [2] was more than 250 µg/mL throughout. Moreover, the “LD50 (BSLT)” value in the data set on Artemia salina L. larvae was more than 1000 µg/mL.
Consider `C=C(C)[C@@H]1CCC(C)C(=O)C1=Cc1ccc(OC)c(OC)c1` (stereo partly drawn) [Compound 6, (3S)-2-(3,4-dimethoxybenzylidene)-3-isopropenyl-6-methylcyclohexanone], for which the results for the EC50 in data set [1] and in data set [2] were more than 250 µg/mL and 47.7 ± 0.8 µg/mL (≈ 159 µM), respectively. Moreover, the “LD50 (BSLT)” value with Artemia salina L. larvae amounted to 954 µg/mL.

These data come from publication PMC8300761, “In Vitro Antifungal Activity and Toxicity of Dihydrocarvone-Hybrid Derivatives against Monilinia fructicola” (Antibiotics, 2021).
